These results are taken from article PMC7404309, “Regulation of ABA-Non-Activated SNF1-Related Protein Kinase 2 Signaling Pathways by Phosphatidic Acid” (International Journal of Molecular Sciences, 2020).

Counter-ions that a name gives are not always drawn.

What is called inhibition is the share of the control response that was lost under treatment.

In one assay the target is T1, PP2CA (Arabidopsis thaliana, UniProt P49598).
T1 construct: GST fusion, E. coli Rosetta, glutathione-Sepharose
T1 sequence (P49598 1-399): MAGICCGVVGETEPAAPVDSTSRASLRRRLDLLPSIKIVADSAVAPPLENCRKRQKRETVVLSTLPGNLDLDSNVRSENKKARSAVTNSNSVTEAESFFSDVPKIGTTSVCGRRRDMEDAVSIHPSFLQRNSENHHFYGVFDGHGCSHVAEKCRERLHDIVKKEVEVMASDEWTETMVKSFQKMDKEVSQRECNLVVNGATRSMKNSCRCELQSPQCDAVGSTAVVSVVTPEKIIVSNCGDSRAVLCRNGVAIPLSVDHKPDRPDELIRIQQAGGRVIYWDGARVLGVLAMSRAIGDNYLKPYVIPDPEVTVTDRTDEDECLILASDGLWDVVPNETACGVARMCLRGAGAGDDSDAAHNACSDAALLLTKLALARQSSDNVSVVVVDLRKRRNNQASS
The experiment in a line: ProFluor Ser/Thr PPase fluorescence assay. In kind it is biochemical.

The next assay deals with T2, ERD10 (Arabidopsis thaliana, UniProt P42759).
T2 construct: GST fusion, E. coli Rosetta, glutathione-Sepharose
T2 sequence (P42759 1-260): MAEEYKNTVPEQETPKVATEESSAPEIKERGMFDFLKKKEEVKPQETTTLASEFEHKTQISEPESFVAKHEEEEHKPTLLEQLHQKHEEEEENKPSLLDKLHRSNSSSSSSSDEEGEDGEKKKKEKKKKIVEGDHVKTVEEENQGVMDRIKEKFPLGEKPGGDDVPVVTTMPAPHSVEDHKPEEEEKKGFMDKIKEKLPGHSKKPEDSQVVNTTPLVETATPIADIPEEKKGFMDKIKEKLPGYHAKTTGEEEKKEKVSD
Nature of the assay: phospholipid blot (lipid overlay). In kind it is binding. The conditions noted are these: TBST pH 7.5, 4 °C.

The target in another assay is T3, ABI1 (Arabidopsis thaliana, UniProt P49597).
T3 construct: GST fusion, E. coli Rosetta, glutathione-Sepharose
T3 sequence (P49597 1-434): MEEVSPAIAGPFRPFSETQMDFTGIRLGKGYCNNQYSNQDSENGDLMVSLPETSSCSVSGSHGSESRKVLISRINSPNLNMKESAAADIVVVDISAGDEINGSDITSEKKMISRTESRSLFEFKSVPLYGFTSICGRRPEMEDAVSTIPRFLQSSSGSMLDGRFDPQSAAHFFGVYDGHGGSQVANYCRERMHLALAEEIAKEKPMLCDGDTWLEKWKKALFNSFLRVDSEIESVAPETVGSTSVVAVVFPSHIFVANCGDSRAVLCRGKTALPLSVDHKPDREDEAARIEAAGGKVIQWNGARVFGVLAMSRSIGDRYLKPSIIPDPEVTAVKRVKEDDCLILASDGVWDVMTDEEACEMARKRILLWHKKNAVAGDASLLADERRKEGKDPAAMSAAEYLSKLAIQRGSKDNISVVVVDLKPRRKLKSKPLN
The experiment in a line: ProFluor Ser/Thr PPase fluorescence assay. In kind it is biochemical.

Consider `CCCCCCCC/C=C\CCCCCCCC(=O)O[C@H](COC(=O)CCCCCCCCCCCCCCC)COP(=O)(O)O` [PA 16:0/18:1, 1-palmitoyl-2-oleoyl-sn-glycero-3-phosphate, sodium salt], for which the inhibition at 50 µM against PP2CA and against ABI1 was 50 to 60% each time. For the same molecule, the “phospholipid blot (lipid overlay)” value at ERD10 was “the two dehydrins bound both PA and PS”.
